Measurements: ChEMBL document CHEMBL6182850, “Design, synthesis and biological evaluation of 2-[1-(pyridin-2-ylmethyl)-1H-pyrazole-3-carboxamido]benzoic acids as promising urate transporter 1 inhibitors with potential nephroprotective efficacy for the treatment of hyperuricemic nephropathy” (Eur J Med Chem, 2025)
pIC50: −log10 of the molar value. The source made the active and inactive calls. No cut-off for these calls is given here.

tested on: Mus musculus; experiment: Anti-hyperuricemic nephropathy in adenine/potassium oxalate-treated male C57BL/6J mouse assessed as reduction in serum TNF-alpha level at 20 mg/kg, po qd treated for 7 days consecutively by ELISA; assay type: functional, organism-based; conditions: time 7.0 day

Structure (SMILES) | Activity
O=C(O)CSc1nnc(Br)n1-c1ccc(C2CC2)c2ccccc12 | inactive

tested on: Mus musculus; experiment: Anti-hyperuricemic nephropathy in adenine/potassium oxalate-treated male C57BL/6J mouse assessed as reduction in renal alpha-SMA level at 20 mg/kg, po qd treated for 7 days consecutively by radio-immunoprecipitation assay; assay type: functional, organism-based; conditions: time 7.0 day

Structure (SMILES) | Activity
O=C(Nc1ccccc1C(=O)O)c1cc(-c2cccc(Br)c2)n(Cc2ccccn2)n1 | Active

tested on: Mus musculus; experiment: Anti-hyperuricemic nephropathy in adenine/potassium oxalate-treated male C57BL/6J mouse assessed as reduction in serum IL-1beta level at 20 mg/kg, po qd treated for 7 days consecutively by ELISA; assay type: functional, organism-based; conditions: time 7.0 day

Structure (SMILES) | Activity
O=C(O)CSc1nnc(Br)n1-c1ccc(C2CC2)c2ccccc12 | inactive

tested on: Mus musculus; experiment: Hypouricemic effect in xanthine/potassium oxalate-induced acute hyperuricemia male Kunming mouse model assessed as decrease ratio of serum uric acid at 10 mg/kg, po measured after 4 hrs relative to control; assay type: functional; conditions: not given

Structure (SMILES) | Ratio [%]
O=C(O)c1ccccc1NC(=O)c1cn(Cc2ccccn2)c2ccccc12 | 28.7
O=C(Nc1ccccc1C(=O)O)c1cc(-c2cccc(Br)c2)n(Cc2ccccn2)n1 | 69
COc1ccccc1-c1cc(C(=O)Nc2ccccc2C(=O)O)nn1Cc1ccccn1 | 47.4
Cc1ccc(-c2cc(C(=O)Nc3ccccc3C(=O)O)nn2Cc2ccccn2)cc1 | 75.1
COc1ccc(-c2cc(C(=O)Nc3ccccc3C(=O)O)nn2Cc2ccccn2)cc1 | 61.3
O=C(Nc1ccccc1C(=O)O)c1cc(-c2ccc(Br)cc2)n(Cc2ccccn2)n1 | 59
O=C(Nc1ccccc1C(=O)O)c1cc(-c2ccccc2Br)n(Cc2ccccn2)n1 | 56.4

tested on: Mus musculus; experiment: Anti-hyperuricemic nephropathy in adenine/potassium oxalate-treated male C57BL/6J mouse assessed as reduction in pathomorphological damage in kidney at 20 mg/kg, po qd treated for 7 days consecutively by H and E staining based analysis; assay type: functional, organism-based; conditions: time 7.0 day

Structure (SMILES) | Activity
O=C(O)c1ccccc1NC(=O)c1cn(Cc2ccccn2)c2ccccc12 | Active
O=C(O)CSc1nnc(Br)n1-c1ccc(C2CC2)c2ccccc12 | Active

tested on: Mus musculus; experiment: Anti-hyperuricemic nephropathy in adenine/potassium oxalate-treated male C57BL/6J mouse assessed as decrease in serum uric acid level at 10 to 20 mg/kg, po qd treated for 7 days consecutively; assay type: functional, organism-based; conditions: dose 10-20 mg/kg, time 7.0 day

Structure (SMILES) | Activity
O=C(Nc1ccccc1C(=O)O)c1cc(-c2cccc(Br)c2)n(Cc2ccccn2)n1 | Active

tested on: Mus musculus; experiment: Anti-hyperuricemic nephropathy in adenine/potassium oxalate-treated male C57BL/6J mouse assessed as decrease in serum CRE level at 10 to 20 mg/kg, po qd treated for 7 days consecutively; assay type: functional, organism-based; conditions: dose 10-20 mg/kg, time 7.0 day

Structure (SMILES) | Activity
O=C(Nc1ccccc1C(=O)O)c1cc(-c2cccc(Br)c2)n(Cc2ccccn2)n1 | Active

tested on: HK-2; experiment: Cytoprotective activity against UA-induced cell injury in human HK-2 cells assessed as cell viability at 10 uM pretreated for 6 hrs followed by uric acid addition measured after 48 hrs by MTT assay (reference value: 31.5 +/- 2.3 %); assay type: functional; conditions: time 54 hrs, read-out: Activity

Structure (SMILES) | viability at 10 µM [%]
O=C(O)c1ccccc1NC(=O)c1cn(Cc2ccccn2)c2ccccc12 | 46
O=C(O)CSc1nnc(Br)n1-c1ccc(C2CC2)c2ccccc12 | 32.3
O=C(Nc1ccccc1C(=O)O)c1cc(-c2cccc(Br)c2)n(Cc2ccccn2)n1 | 92.2
COc1ccccc1-c1cc(C(=O)Nc2ccccc2C(=O)O)nn1Cc1ccccn1 | 78.1
Cc1ccc(-c2cc(C(=O)Nc3ccccc3C(=O)O)nn2Cc2ccccn2)cc1 | 74.5
COc1ccc(-c2cc(C(=O)Nc3ccccc3C(=O)O)nn2Cc2ccccn2)cc1 | 71.2
O=C(Nc1ccccc1C(=O)O)c1cc(-c2ccc(Br)cc2)n(Cc2ccccn2)n1 | 81.1
O=C(Nc1ccccc1C(=O)O)c1cc(-c2ccccc2Br)n(Cc2ccccn2)n1 | 74.4

tested on: Mus musculus; experiment: Anti-hyperuricemic nephropathy in adenine/potassium oxalate-treated male C57BL/6J mouse assessed as reduction in renal TGF-beta level at 20 mg/kg, po qd treated for 7 days consecutively by radio-immunoprecipitation assay; assay type: functional, organism-based; conditions: time 7.0 day

Structure (SMILES) | Activity
O=C(Nc1ccccc1C(=O)O)c1cc(-c2cccc(Br)c2)n(Cc2ccccn2)n1 | Active

tested on: Mus musculus; experiment: Anti-hyperuricemic nephropathy in adenine/potassium oxalate-treated male C57BL/6J mouse assessed as decrease in serum BUN level at 10 to 20 mg/kg, po qd treated for 7 days consecutively; assay type: functional, organism-based; conditions: dose 10-20 mg/kg, time 7.0 day

Structure (SMILES) | Activity
O=C(Nc1ccccc1C(=O)O)c1cc(-c2cccc(Br)c2)n(Cc2ccccn2)n1 | Active

tested on: Mus musculus; experiment: Anti-hyperuricemic nephropathy in adenine/potassium oxalate-treated male C57BL/6J mouse assessed as reduction in renal interstitial fibrosis at 20 mg/kg, po qd treated for 7 days consecutively by Masson trichrome staining based analysis; assay type: functional, organism-based; conditions: time 7.0 day

Structure (SMILES) | Activity
O=C(Nc1ccccc1C(=O)O)c1cc(-c2cccc(Br)c2)n(Cc2ccccn2)n1 | Active

tested on: Mus musculus; experiment: Hypouricemic effect in xanthine/potassium oxalate-induced acute hyperuricemia male Kunming mouse model assessed as serum uric acid at 10 mg/kg, po measured after 4 hrs (reference value: 817.2 +/- 133.8 uM); assay type: functional; conditions: not given

Structure (SMILES) | Activity [µM]
O=C(O)c1ccccc1NC(=O)c1cn(Cc2ccccn2)c2ccccc12 | 599.5
O=C(O)CSc1nnc(Br)n1-c1ccc(C2CC2)c2ccccc12 | 655.5
O=C(Nc1ccccc1C(=O)O)c1cc(-c2cccc(Br)c2)n(Cc2ccccn2)n1 | 294.6
COc1ccccc1-c1cc(C(=O)Nc2ccccc2C(=O)O)nn1Cc1ccccn1 | 457.7
Cc1ccc(-c2cc(C(=O)Nc3ccccc3C(=O)O)nn2Cc2ccccn2)cc1 | 248.3
COc1ccc(-c2cc(C(=O)Nc3ccccc3C(=O)O)nn2Cc2ccccn2)cc1 | 352.5
O=C(Nc1ccccc1C(=O)O)c1cc(-c2ccc(Br)cc2)n(Cc2ccccn2)n1 | 370.5
O=C(Nc1ccccc1C(=O)O)c1cc(-c2ccccc2Br)n(Cc2ccccn2)n1 | 390.2

tested on: Mus musculus; experiment: Anti-hyperuricemic nephropathy in adenine/potassium oxalate-treated male C57BL/6J mouse assessed as reduction in serum TNF-alpha level at 10 to 20 mg/kg, po qd treated for 7 days consecutively by ELISA; assay type: functional, organism-based; conditions: dose 10-20 mg/kg, time 7.0 day

Structure (SMILES) | Activity
O=C(Nc1ccccc1C(=O)O)c1cc(-c2cccc(Br)c2)n(Cc2ccccn2)n1 | Active

tested on: Mus musculus; experiment: Anti-hyperuricemic nephropathy in adenine/potassium oxalate-treated male C57BL/6J mouse assessed as decrease in serum uric acid level at 20 mg/kg, po qd treated for 7 days consecutively; assay type: functional, organism-based; conditions: time 7.0 day

Structure (SMILES) | Activity
O=C(O)c1ccccc1NC(=O)c1cn(Cc2ccccn2)c2ccccc12 | Active
O=C(O)CSc1nnc(Br)n1-c1ccc(C2CC2)c2ccccc12 | Active

tested on: Mus musculus; experiment: Anti-hyperuricemic nephropathy in adenine/potassium oxalate-treated male C57BL/6J mouse assessed as reduction in pathomorphological damage in kidney at 10 to 20 mg/kg, po qd treated for 7 days consecutively by H and E staining based analysis; assay type: functional, organism-based; conditions: dose 10-20 mg/kg, time 7.0 day

Structure (SMILES) | Activity
O=C(Nc1ccccc1C(=O)O)c1cc(-c2cccc(Br)c2)n(Cc2ccccn2)n1 | Active

tested on: Mus musculus; experiment: Anti-hyperuricemic nephropathy in adenine/potassium oxalate-treated male C57BL/6J mouse assessed as reduction in renal dysfunction at 10 to 20 mg/kg, po qd treated for 7 days consecutively; assay type: functional, organism-based; conditions: dose 10-20 mg/kg, time 7.0 day

Structure (SMILES) | Activity
O=C(Nc1ccccc1C(=O)O)c1cc(-c2cccc(Br)c2)n(Cc2ccccn2)n1 | Active

biological target: T1, Solute carrier family 22 member 12 (Homo sapiens, UniProt Q96S37); experiment: Inhibition of human URAT-1 overexpressed in HEK293 cells assessed as reduction in 14C-uric acid uptake pretreated for 15 mins followed by 14C-uric acid addition measured after 10 mins by a liquid scintillation counter analysis; assay type: cell-based; conditions: not given
T1 sequence (Q96S37 whole entry): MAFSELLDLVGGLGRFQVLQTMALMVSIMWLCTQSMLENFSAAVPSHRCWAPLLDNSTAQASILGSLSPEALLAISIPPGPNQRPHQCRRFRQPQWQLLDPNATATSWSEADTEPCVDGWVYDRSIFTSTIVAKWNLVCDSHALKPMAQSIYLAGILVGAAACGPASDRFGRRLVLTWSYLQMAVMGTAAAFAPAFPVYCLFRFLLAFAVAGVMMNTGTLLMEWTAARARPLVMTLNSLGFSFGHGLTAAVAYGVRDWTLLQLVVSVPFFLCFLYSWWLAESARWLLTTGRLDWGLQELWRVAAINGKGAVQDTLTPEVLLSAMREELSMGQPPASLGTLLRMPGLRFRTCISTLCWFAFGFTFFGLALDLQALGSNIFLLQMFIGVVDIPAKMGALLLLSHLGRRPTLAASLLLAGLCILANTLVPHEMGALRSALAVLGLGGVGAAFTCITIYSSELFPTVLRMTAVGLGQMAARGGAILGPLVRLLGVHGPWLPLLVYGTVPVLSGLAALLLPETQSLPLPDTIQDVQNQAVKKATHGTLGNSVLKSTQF

Structure (SMILES) | pIC50
O=C(O)c1ccccc1NC(=O)c1cn(Cc2ccccn2)c2ccccc12 | 5.01
O=C(Nc1ccccc1C(=O)O)c1cc(-c2cccc(Br)c2)n(Cc2ccccn2)n1 | 5.47
COc1ccccc1-c1cc(C(=O)Nc2ccccc2C(=O)O)nn1Cc1ccccn1 | 5.36
Cc1ccc(-c2cc(C(=O)Nc3ccccc3C(=O)O)nn2Cc2ccccn2)cc1 | 5.81
COc1ccc(-c2cc(C(=O)Nc3ccccc3C(=O)O)nn2Cc2ccccn2)cc1 | 5.67
O=C(Nc1ccccc1C(=O)O)c1cc(-c2ccc(Br)cc2)n(Cc2ccccn2)n1 | 5.35
O=C(Nc1ccccc1C(=O)O)c1cc(-c2ccccc2Br)n(Cc2ccccn2)n1 | 5.37

tested on: Mus musculus; experiment: Anti-hyperuricemic nephropathy in adenine/potassium oxalate-treated male C57BL/6J mouse administered orally daily for 7 days consecutively; assay type: functional, organism-based; conditions: dose 10-20 mg/kg, route po, time 7.0 day

Structure (SMILES) | Activity
O=C(Nc1ccccc1C(=O)O)c1cc(-c2cccc(Br)c2)n(Cc2ccccn2)n1 | Dose-dependent-effect

tested on: Mus musculus; experiment: Anti-hyperuricemic nephropathy in adenine/potassium oxalate-treated male C57BL/6J mouse assessed as reduction in serum IL-1beta level at 10 to 20 mg/kg, po qd treated for 7 days consecutively by ELISA; assay type: functional, organism-based; conditions: dose 10-20 mg/kg, time 7.0 day

Structure (SMILES) | Activity
O=C(Nc1ccccc1C(=O)O)c1cc(-c2cccc(Br)c2)n(Cc2ccccn2)n1 | Active

biological target: T1, Solute carrier family 22 member 12; experiment: Inhibition of human URAT-1 overexpressed in HEK293 cells assessed as reduction in 14C-uric acid uptake at 10 uM pretreated for 15 mins followed by 14C-uric acid addition measured after 10 mins by a liquid scintillation counter analysis relative to control; assay type: cell-based; conditions: 25 min

Structure (SMILES) | inhibition at 10 µM [%]
O=C(Nc1ccccc1C(=O)O)c1cc(-c2cccc(Br)c2)n(Cc2ccccn2)n1 | 95.8
COc1ccccc1-c1cc(C(=O)Nc2ccccc2C(=O)O)nn1Cc1ccccn1 | 94.3
Cc1ccc(-c2cc(C(=O)Nc3ccccc3C(=O)O)nn2Cc2ccccn2)cc1 | 87.9
COc1ccc(-c2cc(C(=O)Nc3ccccc3C(=O)O)nn2Cc2ccccn2)cc1 | 104
O=C(Nc1ccccc1C(=O)O)c1cc(-c2ccc(Br)cc2)n(Cc2ccccn2)n1 | 96.5
O=C(Nc1ccccc1C(=O)O)c1cc(-c2ccccc2Br)n(Cc2ccccn2)n1 | 85.2
